Positions of bridges follow the written chain, without caps; N, C: chain ends. No end group written: not given here.
Experiments:
anti-β1-ECII antibodies = assay: ELISA-competition assay: peptide preincubated with sera/IgG of immunized antibody-positive rats, linear 25AA Cys/Cys-peptide as antigen; format: binding, rat; set-up: blocking capacity (% of blocked versus non-blocked ELISA-reactivity): concentration or dose not given beside the values; details: for decrease in circulating free anti-beta1-ECII antibodies: n=6 sera (FIG. 11); for blocking capacity (% of blocked versus non-blocked ELISA-reactivity): IgG from n=78 immunized antibody-positive rats, preincubation 12 h, mutants with D-Glu ring closure (FIG. 7); for blocking capacity (% of blocked versus non-blocked ELISA-reactivity) / blocking-efficiency versus unblocked sera: 4° C.; for blocking capacity (% of blocked versus non-blocked ELISA-reactivity) / blocking efficiency (% of blocked versus non-blocked ELISA reactivity) / blocking capacity (% of blocked versus non-blocked ELISA reactivity): ±SEM; for blocking-efficiency versus unblocked sera: n=6 sera, incubation 12-14 h, mean ±SEM (FIG. 27); for blocking efficiency (% of blocked versus non-blocked ELISA reactivity): type1 sera (93%, n=64 of 69), FIG. 9 upper panel; for blocking capacity (% of blocked versus non-blocked ELISA reactivity): type 2 sera (7%, n=5 of 69), FIG. 9 lower panel
Description: FIG. 9 is a diagram composed of two major-(upper and lower) panels resuming the blocking effect of both 25AA- and 18AA-cyclopeptide mutants having a Gln closure site, as well as 18AA cyclopeptide mutants having a D-Glu closure site after preincubation (12 h, 4° C., rotating incubation) with sera isolated from 69 different immunized antibody-positive rats in an ELISA-competition assay using the 3 Cys-containing linear 25AA Cys/Cys-peptide as an antigen. The upper panel depicts rat sera preferentially reacting with the Cys/Ser mutated cyclopeptides (type1 reaction, n=64), separated in cyc25AA(Gln)-peptides (left) and cyc18AA(Gln and D-Glu)-peptides (right). The lower panel depicts the rat sera reacting with both the Cys/Ser and the Ser/Cys mutated cyclopeptides (type2 reaction, n=5), again separated in the results obtained with cyc25AA(Gln)-peptides (left) and cyc18AA(Gln and D-Glu)-peptides (right).
FIG. 11 is a diagram resuming the dose-dependent (x-axis, abscissa: fold molar excess of specific peptides) blocking capacity of various linear and cyclic beta1-ECII-peptides given in % of the unblocked antibody-titer (y-axis, ordinate), including 25AA Cys/Cys linear peptides (black squares), 25AA Cys/Ser cyclopeptide mutants (white squares), 18AA Cys/Cys cyclo-peptides (black diamonds), 18AA Cys/Ser cyclopeptide mutants (white diamonds), and 18AA Cys/Ser linear peptide mutants (vertically hatched diamonds) in an ELISA competition assay performed with sera from n=6 randomly chosen immunized antibody-positive rats.
FIGS. 27A and B depict the in vitro blocking (=neutralization) capacity of various cysteine-containing cyclopeptide variants of the second extracellular loop (ECII) of the human beta1-adrenergic receptor, determined by testing n=6 individual sera (27A) of immunized beta1-ECII-antibody-positive rats after over-night incubation with the indicated cyclopeptides (12-14 h, 4° C.) by ELISA. Columns in 27A represent the receptor-antibody blocking efficiency of the indicated cyclopeptides in % of the antibody-(ELISA-)signals obtained with unblocked antibody-positive rat sera. Columns in 27B represent the mean blocking efficiency for each cyclopeptide, error bars indicate ±SEM.
The blocking capacity of β1-ECII-18AA cyclopeptide mutants (Cys13-Ser14 or Ser13-Cys14 mutation having an additional D-Glu-Gln exchange, e.g. at the ring closure site) was compared with the 3 Cys-containing 25AA or 18AA Cys/Cys cyclopeptides after preincubation (12 h, 4° C., rotating incubation over-night) of different numbers of sera from immunized antibody-positive rats in an ELISA-competition assay using the 3 Cys-containing linear 25AA Cys/Cys-peptide as an antigen. FIGS. 4, 5, and 7-10 show the results from measurements performed with sera of n=12 up to n=82 immunized antibody-positive rats using different cyclopeptides of the present invention.

[1] = system: beta1-receptor antibodies; assay: in vivo prevention study: five prophylactic peptide applications, serum antibody-titers by ELISA; set-up: species or system rat; details: 1.0 mg/kg body weight i.v., 4-weekly, prevention protocol (FIG. 12)
Description: FIG. 12 is a diagram resuming the in vivo blocking capacity of in total five (prophylatic) applications of various linear and cyclic beta1-ECII-peptides, started 3 months after the first immunization (and two subsequent beta1-ECII/GST-antigen-boosts, corresponding to a prevention protocol). Serum-titers of the beta1-receptor antibodies were determined before and 18-20 h after each peptide injection (abscissa, time in months) and are given in % of the corresponding antibody-titers of immunized untreated rats (y-axis, ordinate). The injected peptides were: 25AA Cys/Cys linear peptide (black squares), […] (white squares), 18AA Cys/Cys cyclopeptide (black diamond), 18AA Cys/Ser cyclopeptide mutant (white diamonds), and the 18AA Cys/Ser linear peptide mutant (vertically hatched diamonds). […] Black circles indicate antibody-titers of untreated regularly (every 4 weeks) immunized animals serving as reference, set at 100%.
The in-vivo blocking effects of both 25AA and 18AA Cys/Ser mutant cyclopeptides (with a Gln closure site), the 18AA Ser/Cys mutant cyclopeptide, and a mutated linear 18AA Cys/Ser peptide were analyzed after intravenous (i.v.) injection of 1.0 mg/kg body weight (Bw) of each construct into freshly immunized antibody-positive rats (i.e., use of cyclo-peptides in a kind of “prevention” study), with a first cyclopeptide-application 3 months after the initial immunization (and two subsequent boost at months 2 and 3). In total, five prophylactic applications of the various constructs were given at 4-weekly intervals, always two weeks after the monthly continued antigen boost. Sera were drawn 18-20 hours after i.v. injection and assayed for reactivity by ELISA using the 3 Cys-containing linear 25AA Cys/Cys-peptide as an antigen (FIG. 12).

[2] = system: anti-beta1-receptor antibody-titers; assay: in vivo therapy study in long term immunized cardiomyopathic rats: antibody-titers by ELISA; set-up: species or system rat
Description: FIG. 16A is a diagram resuming the in vivo blocking effect of both 25AA and 18AA cyclopeptide mutants with a Gln closure site, determined after a total of nine intravenous (i.v.) in-jections of 1.0 mg/kg body weight (Bw) of the indicated peptides into immunized antibody-positive rats. Sera were drawn before and 18-20 hours after i.v. injection of the various peptides every 4 weeks (abscissa: time in months of treatment) and assayed for reactivity by ELISA using the 3 Cys-containing linear 25AA Cys/Cys-peptide as an antigen.
FIG. 16B is a diagram resuming the in vivo blocking effect of various concentrations of 18AA cyclopeptide mutants with a Gln closure site, determined after a total of nine intra-venous (i.v.) injections of 0.25, 1.0, 2.0, and 4.0 mg/kg body weight (Bw) into immunized antibody-positive rats, irrespective of the cyclopeptide “responder-state” of individual animals. Sera were drawn before and 18-20 hours after i.v. injection of the various peptides every 4 weeks (abscissa: time in months), and assayed for reactivity by ELISA using the 3 Cys-containing linear 25AA Cys/Cys-peptide as an antigen.
Sera were drawn as described above and assayed for reactivity by ELISA using the 3 Cys-containing linear 25AA Cys/Cys-peptide as an antigen.
Moreover, the in vivo blocking effects of therapeutically used 25AA and 18AA Cys/Ser cyclo-peptide mutants, the 18AA Ser/Cys mutant (Gln-)cyclopeptide, and a mutated linear 18AA Cys/Ser peptide were assessed after a first intravenous (i.v.) dose (i.e., 1.0 mg/kg body weight (Bw)) of each construct injected into long term immunized anti-beta1-ECII antibody-positive rats, yet presenting a cardiomyopathic phenotype (after nine months of 1× monthly immunization with the beta1-ECII/GST antigen; FIGS. 14-16 and 17). Sera were drawn 18-20 hours after the first i.v. injection of the various constructions and assayed for reactivity by ELISA using the 3 Cys-containing linear 25AA Cys/Cys-peptide as an antigen.
The latter doses were almost equally efficient in terms of both, neutralization of circulating receptor antibodies (FIGS. 16b and c), and reversal of antibody-induced cardiomyopathic features (FIGS. 17b, 19b, 20, and 21b).
In order to generate anti-β1-receptor antibodies the animals were immunized with a fusion protein containing bacterial glutathione-S-transferase and the sequence of the second extra-cellular loop of the human β1-adrenergic receptor (GST/β1-ECII). Before treatment of the animals with mutated cyclopeptides according to the present invention, progressive dilated immune cardiomyopathy is observed after 6 to 8 months of regular immunization every four weeks (FIG. 17). All of the immunized animals developed high titers of stimulatory anti-β1-ECII antibodies. The specific anti-β1-ECII titer reached a maximum between 6 and 8 months of continuously boosting the animals every 4 weeks, whereas NaCl-injected control animals developed no specific receptor antibodies (FIG. 18).
Such immunized animals were used for the application of mutant cyclopeptides according to the present invention. The in-vivo blocking effect of both 25AA and 18AA Cys/Ser mutant cyclopeptides (with a Gln closure site) were determined after a first intravenous (i.v.) injection of 1.0 mg/kg body weight (Bw) (for 18AA Cys/Ser cyclopeptides also 0.25 mg/kg/Bw) into immunized antibody-positive rats. Sera were drawn 18-20 hours after i.v. injection of the different peptides and assayed for reactivity by ELISA using the 3 Cys-containing linear 25AA Cys/Cys-peptide as an antigen.

[3] = 20-fold molar excess of peptide
[4] = 80-fold molar excess of peptide

| Substance | decrease in circulating free anti-beta1-ECII antibodies (anti-β1-ECII antibodies; 8-fold molar excess of peptide) | decrease in circulating free anti-beta1-ECII antibodies (anti-β1-ECII antibodies; [3]) | decrease in circulating free anti-beta1-ECII antibodies (anti-β1-ECII antibodies; [4]) | blocking capacity (% of blocked versus non-blocked ELISA-reactivity) (anti-β1-ECII antibodies) | blocking-efficiency versus unblocked sera (anti-β1-ECII antibodies) | blocking efficiency (% of blocked versus non-blocked ELISA reactivity) (anti-β1-ECII antibodies) | blocking capacity (% of blocked versus non-blocked ELISA reactivity) (anti-β1-ECII antibodies) | antibody-titer decrease after 5 injections, compared with untreated immunized animals [1] | initial transient increase in antibody-titers ([2]; 1.0 mg/kg Bw (FIGS. 16a and b)) | absolute decrease in antibody-titers after 9 months of treatment, of the titer at start of therapy ([2]; 1.0 mg/kg i.v. every 4 weeks) | fraction of rat sera blocked by the peptide (anti-β1-ECII antibodies; n=69 sera, (Gln-)cyclopeptide mutants (FIG. 10), Cys/Ser = blocked by it alone (n=64), Ser/Cys = sera blocked by both (n=5)) | in vivo blocking capacity after the first i.v. injection ([2]; 1 mg/kg Bw, sera 18-20 hours after injection (FIGS. 14 and 15)) |
| --- | --- | --- | --- | --- | --- | --- | --- | --- | --- | --- | --- | --- |
| 18AA Cys/Cys cyclopeptides: (non-mutated) 3 Cys-containing β1-ECII-homologous 18AA cyclopeptide (cyclo(ADEARRCYNDPKCCDFVQ); not fully specified (bridges); cysteine pairing not given here) [reference compound] | 46% | 56% | 71% | 60±4% | 66.1±7.0% | 59±2% | 67±6% | 89.9±3% |  |  |  |  |
| ARAESDEARRCYNDPKCCDFVTNRQ (cysteine pairing not given here) [linear 25AA Cys/Cys peptides, reference compound] | 24% | 35% | about 50% | 55±4% |  |  |  | 25.8±3% |  |  |  |  |
| Cyclo-Ala-Arg-Ala-Glu-Ser-Asp-Glu-Ala-Arg-Arg-Cys-Tyr-Asn-Asp-Pro-Lys-Cys-Ser-Asp-Phe-Val-Thr-Asn-Arg-Gln (cyclo(ARAESDEARRCYNDPKCSDFVTNRQ); disulfide 11-17 (inferred)) [25AA Cys/Ser mutant cyclopeptides] | 30% | 49% | 83% |  |  | 69±2% | 48±6% |  | transient increase in antibody-titers | −37±13% |  |  |
| cyc22AA Cys/Cys: 3 cysteine-containing cyclic 22AA beta1-ECII peptide with a Gly closure site (cyclo(RAESDEARRCYNDPKCCDFVTG); disulfide (positions not given here)) [reference compound] |  |  |  |  | 82.0±5.0% |  |  |  |  |  |  |  |
| cyclo(Ala-Asp-Glu-Ala-Arg-Arg-Cys-Tyr-Asn-Asp-Pro-Lys-Ser-Cys-Asp-Phe-Val-Gln) (cyclo(ADEARRCYNDPKSCDFVQ); disulfide 7-14 (inferred)) [18AA Ser/Cys with Gln-] |  |  |  |  |  | 1±2% | 47±3% |  |  |  | about 7% | clearly less efficient |
